# Tests used:
# Experiment in all cases: Rescue concentration, modified checkerboard MIC adjuvant assay
# Format in all cases: cell-based
# [1] = tested on: Klebsiella pneumoniae ATCC BAA-2814; settings: K. pneumoniae ATCC BAA-2814
# Protocol: (§1) Reference microorganisms as well as clinical strains used to evaluate the antimicrobial adjuvant properties of SP-6azaBIM 125 and SP-6azaBIM 136 are listed in Table 3. Clinical strains of bacteria were kindly provided by the Faculty of Medical Sciences, UWI, St. Augustine, Trinidad. All bacterial cultures were cryopreserved in 30% glycerol/Brain Heart Infusion (BHI) at −80° C. Cultures were revived on BHI agar (Oxoid Ltd, England) and maintained at 4° C. until needed.
# (§2) Prior to each experiment, cultures were streaked onto clean BHI agar plates and incubated at 35° C. for 24 hours. Colonies of the respective cultures were selected and inoculated in phosphate buffer saline (pH 7.5) to a 0.5 McFarland turbidity standard (equivalent to 10^8 CFU mL^−1). For inhibitory studies the bacterial suspensions were diluted 1:100 in cation-adjusted Mueller Hinton Broth (ca-MHB) (Oxoid Ltd, England). Fastidious bacteria including Streptococcus pneumoniae, Haemophilus infuenzae and Clostridium difficile were maintained on BHI agar with 5% defibrinated sheep blood and diluted in ca-MHB with 5% defibrinated sheep blood.
# (§3) Antibiotic powders used in this study were purchased from Sigma Aldrich Ltd. (WI, USA). Antibiotic stock solutions were made at 50 mg mL^−1 according to Andrews (2001) and working solutions were prepared 24 h before use and stored at 4° C.
# (§4) HCl salts of the of the SP-azaBIM test compounds were prepared prior to testing and stored at 4° C. Working preparations of each compound were made to 1 mg/mL in sterile deionised water.
# (§5) The antibiotic adjuvant activity of the SPazaBIMs were evaluated in combination with representative antibiotics (representing 13 antibiotic classes) against the 19 pathogens strains listed in Table 3. To assess the adjuvant properties of the SP-azaBIM molecules, a modified checkerboard minimum inhibitory concentration assay was used. A fixed concentration of the respective antibiotic (susceptible breakpoint concentration) was mixed with a twofold dilution series of the test SP-azaBIM (FIG. 1). This was to determine the concentration of SP-azaBIM needed potentiate the antibiotic at a clinically susceptible breakpoint concentration. Antibiotic susceptible breakpoint concentrations for the respective bacteria were determined using Clinical Laboratory Standards Institute (CLSI) criteria M100 ED31.
# (§6) In this study, only those antibiotics to which the bacterial was classed as resistant were included in the adjuvant assays. In this assay we recorded the rescue concentration of the SP-BIM for a respective antibiotic. The rescue concentration was defined as the concentration of the adjuvant that reduces the minimum inhibitory concentration (MIC) of an antibiotic to the susceptibility breakpoint.
# (§7) Immediately prior to testing, the respective antibiotic and SP-azaBIM was dissolved in sterile deionised water at 20× the required test concentration. Each microtiter well was then inoculated with 180 μl of bacterial inoculum of 10^6 CFU/ml in ca-MHB, and 10 μl each if the antibiotic and SP-azaBIM was added to the plates. These plates were then incubated at 35° C. for 24 h under aerobic conditions. A similar method was followed for the fastidious pathogens except that they were cultured in ca-MHB with 5% sheep blood and 5% CO2.
# (§8) Bacterial growth was visually inspected after the incubation period and the rescue concentration of the test SP-azaBIM was determined as the lowest concentration of the compound needed to reduce bacterial growth by 99.99% at the susceptible breakpoint concentration of the antibiotic. For example, CLSI states that Pseudomonas aeruginosa is susceptible to the Imipenem if the MIC is ≤2 μg mL^−1. If the bacteria can tolerate this concentration in vitro, then the bacteria has an intermediate or absolute resistance toward that antibiotic. […]
# [2] = tested on: Staphylococcus aureus ATCC BAA-2312; settings: S. aureus ATCC BAA-2312
# Protocol: as §1, §2, §3, §4, §5, §6, §7, §8
# [3] = tested on: Escherichia coli ATCC 35150; settings: E. coli ATCC 35150
# Protocol: as §1, §2, §3, §4, §5, §6, §7, §8
# [4] = tested on: Pseudomonas aeruginosa MDR 5805; settings: P. aeruginosa MDR 5805
# Protocol: as §1, §2, §3, §4, §5, §6, §7, §8
# [5] = tested on: Klebsiella pneumoniae ATCC 49472; settings: K. pneumoniae ATCC 49472
# Protocol: as §1, §2, §3, §4, §5, §6, §7, §8
# [6] = tested on: Stenotrophomonas maltophilia MDR 7785; settings: S. maltophilia MDR 7785
# Protocol: as §1, §2, §3, §4, §5, §6, §7, §8
# [7] = tested on: Enterococcus faecalis ATCC 51299; settings: E. faecalis ATCC 51299
# Protocol: as §1, §2, §3, §4, §5, §6, §7, §8
# [8] = tested on: Streptococcus pneumoniae ATCC 49619; settings: S. pneumoniae ATCC 49619
# Protocol: as §1, §2, §3, §4, §5, §6, §7, §8
# [9] = Amox at susceptible breakpoint 8 μg mL^−1
# [10] = Amp at susceptible breakpoint 8 μg mL^−1
# [11] = Ceph at susceptible breakpoint 8 μg mL^−1
# [12] = Chl at susceptible breakpoint 8 μg mL^−1
# [13] = Col at susceptible breakpoint 8 μg mL^−1
# [14] = Dox at susceptible breakpoint 4 μg mL^−1
# [15] = Gen at susceptible breakpoint 4 μg mL^−1
# [16] = Imi at susceptible breakpoint 1 μg mL^−1
# [17] = Tri at susceptible breakpoint 8 μg mL^−1
# [18] = Imi at susceptible breakpoint 2 μg mL^−1
# [19] = Mero at susceptible breakpoint 2 μg mL^−1
structure (smiles),measurement,setting,value
"Brc1ccc(C(c2c[nH]c3cnccc23)c2c[nH]c3cnccc23)cc1 [SP-6azaBIM 125, 3,3′-((4-bromophenyl)methylene)bis(1H-pyrrolo[2,3-c]pyridine)]","Rescue concentration, Amox (8)",[1]; [9],4 µg/mL
same,"Rescue concentration, Amp (8)",[1]; [10],16 µg/mL
same,"Rescue concentration, Aze (4)",[1]; Aze at susceptible breakpoint 4 μg mL^−1,4 µg/mL
same,"Rescue concentration, Azi (16)",[1]; Azi at susceptible breakpoint 16 μg mL^−1,32 µg/mL
same,"Rescue concentration, Cef (16)",[1]; Cef at susceptible breakpoint 16 μg mL^−1,16 µg/mL
same,"Rescue concentration, Ceph (8)",[1]; [11],32 µg/mL
same,"Rescue concentration, Chl (8)",[1]; [12],32 µg/mL
same,"Rescue concentration, Col (8)",[1]; [13],4 µg/mL
same,"Rescue concentration, Dox (4)",[1]; [14],8 µg/mL
same,"Rescue concentration, Gen (4)",[1]; [15],16 µg/mL
same,"Rescue concentration, Imi (1)",[1]; [16],2 µg/mL
same,"Rescue concentration, Tet (4)",[1]; Tet at susceptible breakpoint 4 μg mL^−1,32 µg/mL
same,"Rescue concentration, Azi (2)",[2]; Azi at susceptible breakpoint 2 μg mL^−1,>128 µg/mL
same,"Rescue concentration, Gen (4)",[2]; [15],64 µg/mL
same,"Rescue concentration, Pen (0.12)",[2]; Pen at susceptible breakpoint 0.12 μg mL^−1,>128 µg/mL
same,"Rescue concentration, Tri (8)",[2]; [17],>128 µg/mL
same,"Rescue concentration, Van (2)",[2]; Van at susceptible breakpoint 2 μg mL^−1,>128 µg/mL
same,"Rescue concentration, Cip (0.25)",[3]; Cip at susceptible breakpoint 0.25 μg mL^−1,8 µg/mL
same,"Rescue concentration, Col (8)",[3]; [13],2 µg/mL
same,"Rescue concentration, Dox (4)",[3]; [14],32 µg/mL
same,"Rescue concentration, Imi (1)",[3]; [16],4 µg/mL
same,"Rescue concentration, Amox (8)",[4]; [9],128 µg/mL
same,"Rescue concentration, Col (2)",[4]; Col at susceptible breakpoint 2 μg mL^−1,>128 µg/mL
same,"Rescue concentration, Gen (4)",[4]; [15],16 µg/mL
same,"Rescue concentration, Imi (2)",[4]; [18],>128 µg/mL
same,"Rescue concentration, Mero (2)",[4]; [19],>128 µg/mL
same,"Rescue concentration, Pol B (2)",[4]; Pol B at susceptible breakpoint 2 μg mL^−1,>128 µg/mL
same,"Rescue concentration, Amox (8)",[5]; [9],4 µg/mL
same,"Rescue concentration, Amp (8)",[5]; [10],16 µg/mL
same,"Rescue concentration, Col (8)",[5]; [13],4 µg/mL
same,"Rescue concentration, Imi (1)",[5]; [16],2 µg/mL
same,"Rescue concentration, Mero (1)",[5]; Mero at susceptible breakpoint 1 μg mL^−1,4 µg/mL
same,"Rescue concentration, Pol B (8)",[5]; Pol B at susceptible breakpoint 8 μg mL^−1,4 µg/mL
same,"Rescue concentration, Cef (8)",[6]; Cef at susceptible breakpoint 8 μg mL^−1,8 µg/mL
same,"Rescue concentration, Ceph (8)",[6]; [11],8 µg/mL
same,"Rescue concentration, Chl (8)",[6]; [12],4 µg/mL
same,"Rescue concentration, Cip (2)",[6]; Cip at susceptible breakpoint 2 μg mL^−1,2 µg/mL
same,"Rescue concentration, Gen (4)",[6]; [15],8 µg/mL
same,"Rescue concentration, Imi (2)",[6]; [18],16 µg/mL
same,"Rescue concentration, Mero (2)",[6]; [19],4 µg/mL
same,"Rescue concentration, Tri (2)",[6]; Tri at susceptible breakpoint 2 μg mL^−1,64 µg/mL
same,"Rescue concentration, Amp (8)",[7]; [10],>128 µg/mL
same,"Rescue concentration, Chl (8)",[7]; [12],>128 µg/mL
same,"Rescue concentration, Dox (4)",[7]; [14],>128 µg/mL
same,"Rescue concentration, Ery (0.5)",[7]; Ery at susceptible breakpoint 0.5 μg mL^−1,>128 µg/mL
same,"Rescue concentration, Tri (8)",[7]; [17],>128 µg/mL
same,"Rescue concentration, Van (4)",[7]; Van at susceptible breakpoint 4 μg mL^−1,>128 µg/mL
same,"Rescue concentration, Amox (2)",[8]; Amox at susceptible breakpoint 2 μg mL^−1,>128 µg/mL
same,"Rescue concentration, Ery (0.25)",[8]; Ery at susceptible breakpoint 0.25 μg mL^−1,>128 µg/mL
same,"Rescue concentration, Imi (0.12)",[8]; Imi at susceptible breakpoint 0.12 μg mL^−1,>128 µg/mL

# From patent US20230382926A1, “COMPOUNDS AND USES THEREOF” (The University of The West Indies, priority 2022, published 2023)
